{
  "source": "patent US20090005711A1",
  "about": "“Systems and methods for opening of the blood-brain barrier of a subject using ultrasound” (priority 2005, published 2009)",
  "key": {"[1]": {"tested_on": "left hippocampus of the mouse brain (BBB opening)", "experimental": "Brown CB57-b16 type mice (Charles River Laboratories, Wilmington, Mass., USA; mass: 23 to 28 g) were used in sonication procedures. The mice were anesthetized with a mixture of ketamine (Fort Dodge Animal Health, Fort Dodge, Iowa, USA; concentration: 75 mg per kg of body mass) and xylazine (Ben Venue Laboratories, Bedford, Ohio, USA; concentration: 3.75 mg per kg of body mass). Before sonication, the hair on the top of the mouse heads was removed using an electric trimmer and a depilatory cream. After sonication, but before MRI scanning, the mice were switched to administration of isoflurane to simplify the long anesthesia procedure necessary for MRI scanning. During all imaging procedures, the vital signs of the mice were continuously monitored.\nUltrasound gel was used further to reduce any remaining impedance mismatches between the thin plastic layer 138 and the mouse skin.\nThe focus of the transducer 102 was positioned inside the mouse brain using a grid positioning method, as discussed above. In this method, the sutures of the mouse skull seen through the skin were used as anatomic landmarks for targeting purposes. The location of the hippocampi were assumed relative to the sutures based on the mouse brain and known skull anatomy, as illustrated in FIG. 4. […] In CB57-b16 type mice, these were the sutures that could be clearly seen through the skin.\nUltrasound contrast medium was administered for transport across the BBB. A bolus of 10 μL (approximately 0.4 mL/kg) of ultrasound contrast agent (Optison) that contained microbubbles (mean diameter: 3.0 to 4.5 μm: concentration: 5.0 to 8.0×108 bubbles per mL) was injected into the right femoral vein of the mouse approximately 15 minutes before sonication (Table 1). Pulsed-wave FUS (burst rate: 10 Hz; burst duration: 20 ms; duty cycle: 20%; acoustic pressures at the focus: 2.0, 2.5 and 2.7 MPa) was then applied in a series of five shots lasting 30 seconds each with a 30 second delay between each shot. The FUS sonication procedure was performed once in each mouse brain. […]"}, "[2]": {"tested_on": "left hippocampus (BBB opening and closure)", "test": "9.4 T MRI of gadolinium deposition after FUS with SonoVue in APP/PS1 and NTg mice (Example C)", "type": "in vivo, mouse", "description": "In an example, transgenic mice expressing mutant human APPK670N,M671L protein (line Tg2576) and a line of mice expressing human mutant PS1M146V protein (line 8.9) were crossed to generate offspring: doubly transgenic APP/PS1 animals and wild-type NTg littermates A total of six mice (age: 12 months, mass: 26-37 g) were used: transgenic APP/PS1 (n=3) and NTg (m=3) mice.\nThe experimental timeline is depicted in FIG. 17. Each mouse 180 with intact skin and skull 182 was anesthetized using 1.25-2.50% isoflurane (SurgiVet, Smiths Medical PM, Inc., Wisconsin, USA) and placed prone with its head immobilized by a stereotaxic apparatus 184 (David Kopf Instruments, Tujunga, Calif.) that included a mouse head holder, ear bars, and a gas anesthesia mask (FIG. 16). […] A degassed water-filled container 186 sealed at the bottom with a thin, acoustically and optically transparent, Saran™ Wrap (Saran, SC Johnson, Racine, Wis., USA) was placed on top of the mouse head (FIG. 16). Ultrasound coupling gel 188 was also used to eliminate any remaining impedance mismatch.\nFIG. 18(A) illustrates the frontal bone 200, sagittal suture 202, lambdoid suture 204, left parietal bone 206, right parietal bone 208, and intraparietal bone 210. […] The beam axis of the transducer was aligned 2.25 mm away from the sagittal suture 202 and 2 mm away from the lambdoid suture 204 (FIG. 18(A)). The focal point was placed 3 mm beneath the top of the parietal bone of the skull (dotted line in FIG. 18(A)). In this placement, the focus of the FUS beam overlapped with the left hippocampus 212 and the left posterior cerebral artery (PCA) (FIG. 18(A)-(B)). […] After the BBB opening, gadolinium was injected and monitored with MRI (FIG. 18(C). The horizontal slices shown in FIGS. 18(B)-(C) were obtained approximately 3 mm beneath the top of the skull. […]\nA vertical bore 9.4-Tesla MR scanner (Bruker Medical, Boston, Mass., USA) was used to acquire images of mouse brains in two separate sessions. […] 1-2% isoflurane was administered while the respiration rate of the mouse was monitored throughout the entire MRI procedure. […]"}},
  "data": [
    {"molecule": "[Gd]", "note": "[gadolinium]", "values": [
      {"measurement": "Contrast enhancement / permeation on T1 MRI scans", "setting": "[1]", "result": "eventually encompassing the entire left hippocampus"},
      {"measurement": "Contrast enhancement / BBB opening on T1 MRI scans", "setting": "[1]; in vivo, ip", "result": "highly localized opening of the BBB near the PCA"},
      {"measurement": "Contrast enhancement on T1 MRI scans", "setting": "[1]; in vivo, ip", "result": "no contrast enhancement was observed"},
      {"measurement": "Contrast enhancement on MR images, day 1", "setting": "[2]; 0.64 MPa, 25 μl SonoVue, scans 90 min post-sonication, 90 min post-gadolinium injection (0.75 ml IP)", "result": "the entire left hippocampus and some of its surrounding regions were contrast-enhanced"},
      {"measurement": "Area and degree of contrast enhancement, day 2", "setting": "[2]; 0.64 MPa, 25 μl SonoVue, scans 22 hours post-sonication, second gadolinium injection, compared with day 1", "result": "significantly reduced"},
      {"measurement": "Residual gadolinium in pre-gadolinium T1 and T2-weighted images", "setting": "[2]; before the day 2 scan (22 hours post-sonication)", "result": "no residual gadolinium"}
    ]}
  ]
}
